US20110144345A1, “SULFOXYIMINO-SUBSTITUTED BENZOYL DERIVATIVE AND HERBICIDE” (NIPPON SODA CO., LTD., priority 2008, published 2011)

What was measured:
Type in all cases: in vivo
Parameters in all cases: scale not given here
Echinochloa crus-galli = test: Paddy pot test, herbicidal effect on Echinochloa crus-galli; conditions: Screening, 63 g/ha, applied at 1.5-leaf stage, examined after 3 weeks
Method: (§1) Plastic pots having an area of 100 cm^2 and a depth of 10 cm were filled with paddy soil which is puddled by adding water, and seeds of Echinochloa crus-galli and Scirpus juncoides were planted in the pots. After seeding, rice plants at the 2.5-leaf stage were transplanted and the pots were filled with water. The rice plants were grown in a greenhouse. […] The herbicidal effects and harmful effects on the rice plants were examined after 3 weeks. Herbicidal effects were examined according to the examination criteria described below and were represented by the herbicidal index. [table] […] [formula]

Scirpus juncoides = test: Paddy pot test, herbicidal effect on Scirpus juncoides; conditions: Screening, 63 g/ha, examined after 3 weeks
Method: as §1

rice plants = test: Paddy pot test, harmful effects on transplanted rice plants; conditions: Screening, 63 g/ha, applied at Echinochloa crus-galli 1.5-leaf stage, examined after 3 weeks
Method: as §1

Structure (SMILES) | Rice (harmful effects on the rice plants, index) (rice plants) | Echinochloa crus-galli (herbicidal index) (Echinochloa crus-galli) | Scripus juncoides (herbicidal index) (Scirpus juncoides)
CCCS(=O)(CCC)=Nc1c(OC)ccc(C(=O)c2cnn(C)c2O)c1Cl [Example 145] | 0 | 10 | 8
COc1ccc(C(=O)C2=C(O)CCCC2=O)c(Cl)c1N=S(C)(=O)Cc1ccccc1 (stereo not drawn) [Example 120] | 0 | 8 | 5
COc1ccc(C(=O)c2cnn(C)c2OCc2ccc3ccccc3c2)c(Cl)c1N=S1(=O)CCCC1 [Example 129] | 0 | 7 | 8
C#Cc1ccc(C(=O)C2=C(O)CCCC2=O)c(Cl)c1N=S1(=O)CCCCC1 [Example 173] | 0 | 5 | 7
COc1ccc(C(=O)c2cnn(C)c2OCc2ccc3ccccc3c2)c(OC)c1N=S1(=O)CCOCC1 [Example 134] | 0 | 5 | 8
CSC(=O)Oc1c(C(=O)c2ccc(OC(F)F)c(N=S3(=O)CCCCC3)c2Cl)cnn1C [Example 185] | 0 | 10 | 7
Cc1ccc(C(=O)c2c(C)nn(C)c2OCc2ccc3ccccc3c2)c(C)c1N=S1(=O)CCCCC1 [Example 111] | 0 | 6 | 8
COc1ccc(C(=O)c2cnn(C)c2OCC(=O)c2ccccc2)c(Cl)c1N=S1(=O)CCCCC1 [Example 116] | 0 | 7 | 8

More lines, main results first:

Rice (harmful effects on the rice plants, index) (rice plants) | Structure (SMILES) | Echinochloa crus-galli (herbicidal index) (Echinochloa crus-galli) | Scripus juncoides (herbicidal index) (Scirpus juncoides)
0 | COC(=O)c1ccc(C(=O)c2cnn(C)c2OC(=O)SC(C)C)c(Cl)c1N=S1(=O)CCCCC1 [Example 201] | 5 | 7
0 | COC(=O)n1cc(C(=O)c2ccc(OC)c(N=S3(=O)CCCCC3)c2Cl)c(=O)n1C [Example 105] | 10 | 8
0 | COC(=O)c1ccc(C(=O)c2cnn(C)c2OC(=O)SC)c(Cl)c1N=S1(=O)CCCCC1 [Example 152] | 10 | 8
0 | C#Cc1ccc(C(=O)c2cnn(C)c2O)c(Cl)c1N=S1(=O)CCCCC1 [Example 166] | 6 | 8
0 | COc1ccc(C(=O)c2cnn(C)c2OC(=O)SC)c(OC)c1N=S1(=O)CCCCC1 [Example 183] | 7 | 6
0 | CCCSC(=O)Oc1c(C(=O)c2ccc(C(=O)OC)c(N=S3(=O)CCCCC3)c2Cl)cnn1C [Example 202] | 7 | 7
0 | CCN(CC)CC.COc1ccc(C(=O)c2cnn(C)c2O)c(Cl)c1N=S1(=O)CCCCC1 [Example 137] | 10 | 8
1 | CCc1ccc(C(=O)c2cnn(C)c2O)c(Cl)c1N=S1(=O)CCCCC1 [Example 188] | 10 | 7
0 | COc1ccc(C(=O)c2cnn(C)c2OC(=O)c2ccccc2)c(Cl)c1N=S1(=O)CCCCC1 [Example 138] | 10 | 8
0 | COC(=O)c1ccc(C(=O)c2c(C3CC3)nn(C)c2O)cc1N=S1(=O)CCCCC1 [Example 102] | 6 | 6
